{
  "source": "patent US12060385B2",
  "about": "“Compounds for RNA capping and uses thereof” (GUANGZHOU HENOVCOM BIOSCIENCE CO., LTD., priority 2022, dated 2024)",
  "data": [
    {"target": "T7 RNA Polymerase (Escherichia phage T7, UniProt P00573)", "sequence (P00573 whole entry)": "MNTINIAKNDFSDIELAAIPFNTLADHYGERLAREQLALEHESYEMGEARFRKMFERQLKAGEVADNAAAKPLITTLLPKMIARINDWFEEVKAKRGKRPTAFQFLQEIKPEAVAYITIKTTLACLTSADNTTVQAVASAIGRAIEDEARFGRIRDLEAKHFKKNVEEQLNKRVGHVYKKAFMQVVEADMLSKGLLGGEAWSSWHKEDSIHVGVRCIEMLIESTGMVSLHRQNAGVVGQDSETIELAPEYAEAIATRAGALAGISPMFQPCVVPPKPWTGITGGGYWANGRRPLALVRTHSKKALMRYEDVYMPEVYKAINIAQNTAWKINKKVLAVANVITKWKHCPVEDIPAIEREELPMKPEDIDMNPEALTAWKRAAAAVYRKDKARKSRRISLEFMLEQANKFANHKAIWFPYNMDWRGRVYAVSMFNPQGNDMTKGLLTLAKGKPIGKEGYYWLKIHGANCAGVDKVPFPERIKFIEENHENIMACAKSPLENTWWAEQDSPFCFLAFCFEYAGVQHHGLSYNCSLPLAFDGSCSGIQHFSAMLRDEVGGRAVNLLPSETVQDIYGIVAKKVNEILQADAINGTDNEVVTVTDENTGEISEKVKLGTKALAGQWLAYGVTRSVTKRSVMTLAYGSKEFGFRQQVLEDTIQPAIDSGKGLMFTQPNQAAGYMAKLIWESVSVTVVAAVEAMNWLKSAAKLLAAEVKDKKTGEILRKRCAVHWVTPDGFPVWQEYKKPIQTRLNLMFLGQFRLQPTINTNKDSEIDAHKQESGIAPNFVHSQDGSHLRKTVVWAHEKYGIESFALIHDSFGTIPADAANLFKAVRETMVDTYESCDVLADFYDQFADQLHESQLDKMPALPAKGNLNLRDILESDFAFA", "assay_type": "biochemical", "settings": "20 μL transcription system, Cap1 Analog 4 mM, 37° C. 2 to 3 hours", "method": "• 1) A plasmid was linearized and the DNA template was purified. • 2) mRNA was synthesized in vitro with 51 types of capping structures of the present disclosure, or without any cap analogues. CleanCap®AG (3′OMe) (Trilink, N-7413) was applied as positive control group, uncapped mRNA was negative control group, and DNAase/RNase-Free water was a blank control group.\nThe system was incubated for 2 to 3 hours at 37° C. and digested by TURBO DNase for 15 min LiCl was used to precipitate mRNA for at least 30 min, or overnight, mRNA precipitates were then washed with 75% ethanol. After ethanol was quickly volatilized, mRNA was re-solubilized with RNase-Free water. • 3) The transcribed products were purified and the transcription yields were calculated.", "units": {"Final product mass obtained from the 20 μL of mRNA transcription system": "µg"}, "values": [
      {"smiles": "COCC[C@H]1[C@@H](O)[C@H](n2c[n+](C)c3c(=O)[nH]c(N)nc32)O[C@@H]1COP(=O)(O)OP(=O)(O)OP(=O)(O)OC[C@H]1O[C@@H](n2cnc3c(N)ncnc32)[C@H](OC)[C@@H]1OP(=O)([O-])OC[C@H]1O[C@@H](n2cnc3c(=O)[nH]c(N)nc32)[C@H](O)[C@@H]1O", "note": "[Compound 5]", "Final product mass obtained from the 20 μL of mRNA transcription system": 95},
      {"smiles": "C=CCOC[C@H]1[C@@H](O)[C@H](n2c[n+](C)c3c(=O)[nH]c(N)nc32)O[C@@H]1COP(=O)(O)OP(=O)(O)OP(=O)(O)OC[C@H]1O[C@@H](n2cnc3c(N)ncnc32)[C@H](OC)[C@@H]1OP(=O)(O)OC[C@H]1O[C@@H](n2cnc3c(=O)[nH]c(N)nc32)[C@H](O)[C@@H]1O", "note": "[Compound 33]", "Final product mass obtained from the 20 μL of mRNA transcription system": 103},
      {"smiles": "C#CCOCC[C@H]1[C@@H](O)[C@H](n2c[n+](C)c3c(=O)[nH]c(N)nc32)O[C@@H]1COP(=O)(O)OP(=O)(O)OP(=O)(O)OC[C@H]1O[C@@H](n2cnc3c(N)ncnc32)[C@H](OC)[C@@H]1OP(=O)(O)OC[C@H]1O[C@@H](n2cnc3c(=O)[nH]c(N)nc32)[C@H](O)[C@@H]1O", "note": "[Compound 51]", "Final product mass obtained from the 20 μL of mRNA transcription system": 114},
      {"smiles": "COCCNC(=O)C[C@@H]1[C@@H](COP(=O)(O)OP(=O)(O)OP(=O)(O)OC[C@H]2O[C@@H](n3cnc4c(N)ncnc43)[C@H](OC)[C@@H]2OP(=O)([O-])OC[C@H]2O[C@@H](n3cnc4c(=O)[nH]c(N)nc43)[C@H](O)[C@@H]2O)OC(n2c[n+](C)c3c(=O)[nH]c(N)nc32)[C@@H]1O", "note": "(stereo partly shown) [Compound 58]", "Final product mass obtained from the 20 μL of mRNA transcription system": 115},
      {"smiles": "COC[C@H]1[C@@H](O)[C@H](n2c[n+](C)c3c(=O)[nH]c(N)nc32)O[C@@H]1COP(=O)(O)OP(=O)(O)OP(=O)(O)OC[C@H]1O[C@@H](n2cnc3c(N)ncnc32)[C@H](OC)[C@@H]1OP(=O)([O-])OC[C@H]1O[C@@H](n2ccc(=O)[nH]c2=O)[C@H](O)[C@@H]1O", "note": "[Compound 110]", "Final product mass obtained from the 20 μL of mRNA transcription system": 106},
      {"smiles": "CO[C@@H]1[C@H](OP(=O)([O-])OC[C@H]2O[C@@H](n3ccc(=O)[nH]c3=O)[C@H](O)[C@@H]2O)[C@@H](COP(=O)(O)OP(=O)(O)OP(=O)(O)OC[C@H]2OC(n3c[n+](C)c4c(=O)[nH]c(N)nc43)[C@H](O)[C@@H]2CNC(C)=O)O[C@H]1n1cnc2c(N)ncnc21", "note": "(stereo partly shown) [Compound 118]", "Final product mass obtained from the 20 μL of mRNA transcription system": 86},
      {"smiles": "CO[C@@H]1[C@H](OP(=O)(O)OC[C@H]2O[C@@H](n3cnc4c(=O)[nH]c(N)nc43)[C@H](O)[C@@H]2O)[C@@H](COP(=O)(O)OP(=O)(O)OP(=O)(O)OC[C@H]2O[C@@H](n3c[n+](C)c4c(=O)[nH]c(N)nc43)[C@H](O)[C@@H]2CO)O[C@H]1n1cnc2c(N)ncnc21", "note": "[Compound 137]", "Final product mass obtained from the 20 μL of mRNA transcription system": 116},
      {"smiles": "CCCCOC[C@H]1[C@@H](O)[C@H](n2c[n+](C)c3c(=O)[nH]c(N)nc32)O[C@@H]1COP(=O)(O)OP(=O)(O)OP(=O)(O)OC[C@H]1O[C@@H](n2cnc3c(N)ncnc32)[C@H](OC)[C@@H]1OP(=O)(O)OC[C@H]1O[C@@H](n2cnc3c(=O)[nH]c(N)nc32)[C@H](O)[C@@H]1O", "note": "[Compound 151]", "Final product mass obtained from the 20 μL of mRNA transcription system": 110},
      {"smiles": "CO[C@@H]1[C@H](OP(=O)([O-])OC[C@H]2O[C@@H](n3cnc4c(=O)[nH]c(N)nc43)[C@H](O)[C@@H]2O)[C@@H](COP(=O)(O)OP(=O)(O)OP(=O)(O)OC[C@H]2O[C@@H](n3c[n+](C)c4c(=O)[nH]c(N)nc43)[C@H](O)[C@@H]2CCO)O[C@H]1n1cnc2c(N)ncnc21", "note": "[Compound 153]", "Final product mass obtained from the 20 μL of mRNA transcription system": 65},
      {"smiles": "CCCOCC[C@H]1[C@@H](O)[C@H](n2c[n+](C)c3c(=O)[nH]c(N)nc32)O[C@@H]1COP(=O)(O)OP(=O)(O)OP(=O)(O)OC[C@H]1O[C@@H](n2cnc3c(N)ncnc32)[C@H](OC)[C@@H]1OP(=O)(O)OC[C@H]1O[C@@H](n2cnc3c(=O)[nH]c(N)nc32)[C@H](O)[C@@H]1O", "note": "[Compound 163]", "Final product mass obtained from the 20 μL of mRNA transcription system": 102},
      {"smiles": "COC[C@H]1[C@@H](O)[C@H](n2c[n+](C)c3c(=O)[nH]c(N)nc32)O[C@@H]1COP(=O)(O)CP(=O)(O)OP(=O)(O)OC[C@H]1O[C@@H](n2cnc3c(N)ncnc32)[C@H](OC)[C@@H]1OP(=O)(O)OC[C@H]1O[C@@H](n2cnc3c(=O)[nH]c(N)nc32)[C@H](O)[C@@H]1O", "note": "[Compound 171]", "Final product mass obtained from the 20 μL of mRNA transcription system": 105},
      {"smiles": "COC[C@H]1[C@@H](O)[C@H](n2c[n+](C)c3c(=O)[nH]c(N)nc32)O[C@@H]1COP(=O)(O)OP(=O)(O)OP(=O)(O)OP(=O)(O)OC[C@H]1O[C@@H](n2cnc3c(N)ncnc32)[C@H](OC)[C@@H]1OP(=O)(O)OC[C@H]1O[C@@H](n2cnc3c(=O)[nH]c(N)nc32)[C@H](O)[C@@H]1O", "note": "[Compound 189]", "Final product mass obtained from the 20 μL of mRNA transcription system": 92},
      {"smiles": "COC[C@@H]1[C@@H](COP(=O)(O)OP(=O)([O-])OP(=O)([O-])OC[C@H]2O[C@@H](n3cnc4c(N)ncnc43)[C@H](OC)[C@@H]2NP(=O)(O)OC[C@H]2O[C@@H](n3cnc4c(=O)[nH]c(N)nc43)[C@H](O)[C@@H]2O)OC(n2c[n+](C)c3c(=O)[nH]c(N)nc32)[C@@H]1O.[Na+]", "note": "(stereo partly shown) [Compound 195]", "Final product mass obtained from the 20 μL of mRNA transcription system": 69},
      {"smiles": "CNc1ncnc2c1ncn2[C@@H]1O[C@H](COP(=O)(O)OP(=O)(O)OP(=O)(O)OC[C@H]2O[C@@H](n3c[n+](C)c4c(=O)[nH]c(N)nc43)[C@H](O)[C@@H]2COC)[C@@H](OP(=O)([O-])OC[C@H]2O[C@@H](n3cnc4c(=O)[nH]c(N)nc43)[C@H](O)[C@@H]2O)[C@H]1OC", "note": "[Compound 197]", "Final product mass obtained from the 20 μL of mRNA transcription system": 121},
      {"smiles": "COC[C@H]1[C@@H](O)[C@H](n2c[n+](C)c3c(=O)[nH]c(N)nc32)O[C@@H]1COP(=O)(O)OP(=O)(O)OP(=O)(O)OC[C@H]1O[C@@H](n2cnc3c(N)ncnc32)[C@H](OC)[C@@H]1OCOC[C@H]1O[C@@H](n2cnc3c(=O)[nH]c(N)nc32)[C@H](O)[C@@H]1O", "note": "[Compound 199]", "Final product mass obtained from the 20 μL of mRNA transcription system": 95},
      {"smiles": "CCO[C@@H]1[C@H](OP(=O)(O)OC[C@H]2O[C@@H](n3cnc4c(=O)[nH]c(N)nc43)[C@H](O)[C@@H]2O)[C@@H](COP(=O)(O)OP(=O)(O)OP(=O)(O)OCC2O[C@@H](n3c[n+](C)c4c(=O)[nH]c(N)nc43)[C@H](O)[C@@H]2COC)O[C@H]1n1cnc2c(N)ncnc21", "note": "(stereo partly shown) [Compound 203]", "Final product mass obtained from the 20 μL of mRNA transcription system": 96},
      {"smiles": "COC[C@H]1[C@@H](O)[C@H](n2c[n+](Cc3ccccc3)c3c(=O)[nH]c(N)nc32)O[C@@H]1COP(=O)(O)OP(=O)(O)OP(=O)(O)OC[C@H]1O[C@@H](n2cnc3c(N)ncnc32)[C@H](OC)[C@@H]1OP(=O)([O-])OC[C@H]1O[C@@H](n2cnc3c(=O)[nH]c(N)nc32)[C@H](O)[C@@H]1O", "note": "[Compound 215]", "Final product mass obtained from the 20 μL of mRNA transcription system": 95},
      {"smiles": "COC[C@H]1[C@@H](O)[C@H](n2c[n+](C)c3c(=O)[nH]c(NC(C)C)nc32)O[C@@H]1COP(=O)(O)OP(=O)(O)OP(=O)(O)OC[C@H]1O[C@@H](n2cnc3c(N)ncnc32)[C@H](OC)[C@@H]1OP(=O)([O-])OC[C@H]1O[C@@H](n2cnc3c(=O)[nH]c(N)nc32)[C@H](O)[C@@H]1O", "note": "[Compound 219]", "Final product mass obtained from the 20 μL of mRNA transcription system": 101},
      {"smiles": "CO[C@@H]1[C@H](OP(=O)([O-])OC[C@H]2O[C@@H](n3cnc4c(=O)[nH]c(N)nc43)[C@H](O)[C@@H]2O)[C@@H](COP(=O)(O)OP(=O)(O)OP(=O)(O)OC[C@H]2O[C@@H](n3c[n+](C)c4c(=O)[nH]c(N)nc43)[C@H](O)[C@@H]2CNC=O)O[C@H]1n1cnc2c(N)ncnc21", "note": "[Compound 299]", "Final product mass obtained from the 20 μL of mRNA transcription system": 105}
    ]}
  ]
}
